{"source": "patent US20220288110A1", "about": "“DRUG TREATMENT AND BIOMARKER PANEL TARGETED TO DISEASES DUE TO MULT[…] OF […]” (priority 2021, published 2022)", "test_system": "Severe Acute Respiratory Syndrome-Associated Coronavirus (SARS-CoV-1) Urbani strain", "set-up": "species or system BALB/C mice", "details": "in vivo", "note": "Values joined by “and” are separate entries in the source; they are usually repeats but may differ in a detail not shown here. Equal values may be shown once."}
{"substance": "polyinosinic: polycytidylic acid", "values": [{"measurement": "relative efficacy in reducing viral load in mouse lung (in words)", "result": "lower viral titers at the 3-day mark"}, {"measurement": "order of efficacy by percent reduction in viral load", "setting": "mouse", "result": "H>G>F>A>D>B=C>I>J>E"}, {"measurement": "virtual linear slope of viral reduction beyond 5 days post exposure: day mark at which it converged", "setting": "mouse", "result": 7, "unit": "days"}, {"measurement": "Lung virus titer", "setting": "mouse, ip, 10 mg/kg/day", "result": "7.2 CC ID/50 (Log 10) and 7.0 CC ID/50 (Log 10) and 6.5 CC ID/50 (Log 10) and 6.0 CC ID/50 (Log 10) and 6.2 CC ID/50 (Log 10)"}, {"measurement": "percent reduction in viral load", "setting": "mouse, ip, 10 mg/kg/day", "result": 11.8, "unit": "%"}]}
